30 compounds from patent US11345702B1 (Myoforte Therapeutics, Inc., priority 2020, dated 2022) can be followed below.

Some results are limits rather than exact numbers.

One may read the IC50 as the concentration that gives 50% inhibition.

The target of one data set is 15-PGDH/HPGD (Homo sapiens (Human), UniProt P15428). Put plainly: hPGDH inhibitor screening biochemical assay. Particulars: read-out: hPGDH: Average IC50. An outline of the steps: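 Ten-point dose-response inhibition of 15-PGDH measured by fluorescence (340/485 nm) after 10 min at room temperature with PGE2 (15 μM) and NAD+ (0.25 mM), following 10 min enzyme (10 nM)–compound pre-incubation at 37 °C. Buffer: 50 mM Tris-HCl pH 7.5, 0.01% Tween 20. Percent inhibition relative to 1% DMSO; four-parameter IC50.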
15-PGDH/HPGD, sequence (P15428 whole entry): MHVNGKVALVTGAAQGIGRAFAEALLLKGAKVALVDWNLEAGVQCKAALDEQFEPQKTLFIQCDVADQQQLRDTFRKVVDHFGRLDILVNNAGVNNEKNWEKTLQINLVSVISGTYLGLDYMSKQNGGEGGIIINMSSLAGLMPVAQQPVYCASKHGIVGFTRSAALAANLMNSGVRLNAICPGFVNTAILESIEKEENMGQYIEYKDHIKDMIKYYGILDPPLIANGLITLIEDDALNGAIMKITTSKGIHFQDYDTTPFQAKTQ

A short description of data set [1]: Liver microsome stability assay (MLM). Type of data set: in vitro ADME. Particulars: mouse liver microsomes. The method, then: A microsomal mixture (microsomes and Kphos buffer) was prepared at a concentration of 1.428 mg/mL in 2 mL tubes. To this microsomal mixture 1.6 μL (1 mM) of test compound and positive control were spiked; from this mixture, 70 μL was transferred to 96 well plate and pre-incubated at 37° C. for 5 min. After pre-incubation, the zero minute time point reaction was stopped using 100 μL of ice-cold acetonitrile containing internal standard and […] (3.33 mM in Kphos buffer) was added. The 45 minute time point reaction was initiated by addition of 30 μL of NADPH (3.33 mM in Kphos buffer) and incubated at 37° C. for 15 and 45 min. Reactions without NADPH and buffer controls (minus NADPH) at 0, 15, and 45 minutes were also incubated to rule out non-NADPH metabolism or chemical instability in the incubation buffer. Incubation reactions were stopped with 100 μL of ice-cold acetonitrile containing internal standard. The plates were centrifuged at 4000 RPM for 15 min and 100 μL aliquots were submitted for analysis by LC-MS/MS. (Verapamil in human liver microsomes (HLM) and rat liver microsomes (RLM) was used as positive controls. Imipramine in mouse liver microsomes (MLM) was used as a positive control.) Samples were monitored for parent compound disappearance in MRM mode (multiple reaction monitoring) using LC-MS/MS. The peak area ratios of analyte versus internal standard were used to calculate the % remaining at the end of 45 minutes in the presence of NADPH.
(In general: Microsomes from liver hold many membrane-bound enzymes, among them those of drug oxidation.)

Regarding `Cc1c(C(=O)N2CCC(F)CC2)cnc2c1ccn2-c1ccc(C#N)cc1` [MF-DH-387, 4-(5-(4-fluoropiperidine-1-carbonyl)-4-methyl-1H-pyrrolo[2,3-b]pyridin-1-yl)benzonitrile], the 50% inhibitory concentration (IC50) at 15-PGDH/HPGD is below 100 nM. Moreover, in data set [1], the “MLM + NADPH (% remaining at 45 min)” value came to 72%.
For the compound `O=C(c1cnc2c(ccn2-c2ccc3[nH]ncc3c2)c1)N1CCC(F)(F)CC1` [MF-DH-396], on 15-PGDH/HPGD, the IC50 is below 100 nM. The “MLM + NADPH (% remaining at 45 min)” value in data set [1] is recorded as 4%.
The matching figures for `N/C(=N\O)c1ccc(-n2ccc3cc(C(=O)N4CCCCC4)cnc32)cc1` [MF-DH-399]: below 100 nM and 6%.
In the same order, the values of `N/C(=N\O)c1cccc(-n2ccc3cc(C(=O)N4CCCCC4)cnc32)c1` [MF-DH-400] are below 100 nM and 0%.
The matching figures for `CC(C)(C)C(=O)NCCNC(=O)c1ccc(-n2ccc3cc(C(=O)N4CCC(F)(F)CC4)cnc32)cc1` [MF-DH-403, 4-(5-(4,4-difluoropiperidine-1-carbonyl)-1H-pyrrolo[2,3-b]pyridin-1-yl)-N-(2-pivalamidoethyl)benzamide]: below 100 nM and 45%.
`CC(C)(C)CNC(=O)c1cncc(-n2ccc3cc(C(=O)N4CCC(F)(F)CC4)cnc32)c1` [MF-DH-405, 5-(5-(4,4-difluoropiperidine-1-carbonyl)-1H-pyrrolo[2,3-b]pyridin-1-yl)-N-neopentylnicotinamide]: the IC50 at 15-PGDH/HPGD is below 100 nM. In addition, the “MLM + NADPH (% remaining at 45 min)” value in data set [1] turned out to be 86%.
With `CC(C)(C)NC(=O)c1ccc(-n2ccc3cc(C(=O)N4CCC(F)(F)CC4)cnc32)cn1` [MF-DH-406, N-(tert-butyl)-5-(5-(4,4-difluoropiperidine-1-carbonyl)-1H-pyrrolo[2,3-b]pyridin-1-yl)picolinamide], the IC50 on 15-PGDH/HPGD is below 100 nM. For the same compound, in data set [1], the “MLM + NADPH (% remaining at 45 min)” value is reported as 66%.
In the same order, the values of `CCC(CC)NC(=O)c1cncc(-n2ccc3cc(C(=O)N4CCC(F)(F)CC4)cnc32)c1` [MF-DH-407, 5-(5-(4,4-difluoropiperidine-1-carbonyl)-1H-pyrrolo[2,3-b]pyridin-1-yl)-N-(pentan-3-yl)nicotinamide] are below 100 nM and 51%.
For the compound `CS(=O)(=O)NCCNC(=O)c1ccc(-n2ccc3cc(C(=O)N4CCC(F)(F)CC4)cnc32)cc1` [MF-DH-409, 4-(5-(4,4-difluoropiperidine-1-carbonyl)-1H-pyrrolo[2,3-b]pyridin-1-yl)-N-(2-(methylsulfonamido)ethyl)benzamide], the IC50 at 15-PGDH/HPGD was below 100 nM. The “MLM + NADPH (% remaining at 45 min)” value in data set [1] was 78%.
The matching figures for `NCCNC(=O)c1ccc(-n2ccc3cc(C(=O)N4CCC(F)(F)CC4)cnc32)cc1` [MF-DH-411, N-(2-aminoethyl)-4-(5-(4,4-difluoropiperidine-1-carbonyl)-1H-pyrrolo[2,3-b]pyridin-1-yl)benzamide]: below 100 nM and 87%.
In the case of `O=C(NC(CO)CO)c1ccc(-n2ccc3cc(C(=O)N4CCC(F)(F)CC4)cnc32)cc1` [MF-DH-412], the IC50 on 15-PGDH/HPGD was below 100 nM. Besides, the “MLM + NADPH (% remaining at 45 min)” value in data set [1] came to 97%.
The matching figures for `O=C(NCCO)c1ccc(-n2ccc3cc(C(=O)N4CCC(F)(F)CC4)cnc32)cc1` [MF-DH-413]: below 100 nM and 94%.
`CS(=O)(=O)NC(=O)c1ccc(-n2ccc3cc(C(=O)N4CCC(F)(F)CC4)cnc32)cc1` [MF-DH-428, 4-(5-(4,4-difluoropiperidine-1-carbonyl)-1H-pyrrolo[2,3-b]pyridin-1-yl)-N-(methylsulfonyl)benzamide]: the IC50 at 15-PGDH/HPGD is below 100 nM. Besides, the “MLM + NADPH (% remaining at 45 min)” value in data set [1] stood at 97%.
Regarding `O=C(NC1(C(=O)O)CC1)c1ccc(-n2ccc3cc(C(=O)N4CCC(F)(F)CC4)cnc32)cc1` [MF-DH-429], at 15-PGDH/HPGD, the IC50 is below 100 nM. Also, the “MLM + NADPH (% remaining at 45 min)” value in data set [1] was 97%.
For the compound `O=C(O)c1ccc(-n2ccc3cc(C(=O)N4CCC(F)(F)CC4)cnc32)cn1` [MF-DH-434, 5-(5-(4,4-difluoropiperidine-1-carbonyl)-1H-pyrrolo[2,3-b]pyridin-1-yl)picolinic acid], the IC50 on 15-PGDH/HPGD is below 100 nM. In data set [1], the “MLM + NADPH (% remaining at 45 min)” value was determined as 94%.
With `CCC(CC)NC(=O)c1ccc(-n2ccc3cc(C(=O)N4CCC(F)(F)CC4)cnc32)cn1` [MF-DH-437, 5-(5-(4,4-difluoropiperidine-1-carbonyl)-1H-pyrrolo[2,3-b]pyridin-1-yl)-N-(pentan-3-yl) picolinamide], the IC50 at 15-PGDH/HPGD was below 100 nM. For the same compound, the “MLM + NADPH (% remaining at 45 min)” value in data set [1] worked out at 25%.
The matching figures for `CC(C)(C)CNC(=O)c1ccc(-n2ccc3cc(C(=O)N4CCC(F)(F)CC4)cnc32)cn1` [MF-DH-438, 5-(5-(4,4-difluoropiperidine-1-carbonyl)-1H-pyrrolo[2,3-b]pyridin-1-yl)-N-neopentylpicolinamide]: below 100 nM and 63%.
The matching figures for `CC(C)(C)NC(=O)c1cncc(-n2ccc3cc(C(=O)N4CCC(F)(F)CC4)cnc32)c1` [MF-DH-448, N-(tert-butyl)-5-(5-(4,4-difluoropiperidine-1-carbonyl)-1H-pyrrolo[2,3-b]pyridin-1-yl)nicotinamide]: below 100 nM and 79%.
Regarding `O=C(c1cnc2c(ccn2-c2ccc(-c3nnn[nH]3)nc2)c1)N1CCC(F)(F)CC1` [MF-DH-452, (1-(6-(1H-tetrazol-5-yl)pyridin-3-yl)-1H-pyrrolo[2,3-b]pyridin-5-yl)(4,4-difluoropiperidin-1-yl)methanone], the IC50 at 15-PGDH/HPGD was below 100 nM. The “MLM + NADPH (% remaining at 45 min)” value in data set [1] came out at 90%.
As for `CC1(C)NC(=O)N(c2ccc(-n3ccc4cc(C(=O)N5CCC(F)(F)CC5)cnc43)cn2)C1=O` [MF-DH-457], the IC50 at 15-PGDH/HPGD is below 100 nM. Further, the “MLM + NADPH (% remaining at 45 min)” value in data set [1] came to 87%.
In the case of `O=C(Nc1ccno1)c1cncc(-n2ccc3cc(C(=O)N4CCC(F)(F)CC4)cnc32)c1` [MF-DH-459, 5-(5-(4,4-difluoropiperidine-1-carbonyl)-1H-pyrrolo[2,3-b]pyridin-1-yl)-N-(isoxazol-5-yl)nicotinamide], at 15-PGDH/HPGD, the IC50 is below 100 nM. Moreover, in data set [1], the “MLM + NADPH (% remaining at 45 min)” value came out at 31%.
In the same order, the values of `NC(=O)c1ccc(-n2cnc3cc(C(=O)N4CCC(F)(F)CC4)cnc32)cc1` [MF-DH-464] are below 100 nM and 100%.
The matching figures for `NCCNC(=O)c1cccc(-n2ccc3cc(C(=O)N4CCC(F)(F)CC4)cnc32)c1` [MF-DH-467, N-(2-aminoethyl)-3-(5-(4,4-difluoropiperidine-1-carbonyl)-1H-pyrrolo[2,3-b]pyridin-1-yl)benzamide]: 100 to 1000 nM and 90%.
Take `Cc1nc(-c2cncc(-n3ccc4cc(C(=O)N5CCC(F)(F)CC5)cnc43)c2)no1` [MF-DH-470, (4,4-difluoropiperidin-1-yl)(1-(5-(5-methyl-1,2,4-oxadiazol-3-yl)pyridin-3-yl)-1H-pyrrolo[2,3-b]pyridin-5-yl)methanone]: the IC50 on 15-PGDH/HPGD is below 100 nM. Moreover, in data set [1], the “MLM + NADPH (% remaining at 45 min)” value came to 74%.
Regarding `Cc1nc(-c2ccc(-n3ccc4cc(C(=O)N5CCC(F)(F)CC5)cnc43)cn2)no1` [MF-DH-471, (4,4-difluoropiperidin-1-yl)(1-(6-(5-methyl-1,2,4-oxadiazol-3-yl)pyridin-3-yl)-1H-pyrrolo[2,3-b]pyridin-5-yl)methanone], at 15-PGDH/HPGD, the IC50 was below 100 nM. The “MLM + NADPH (% remaining at 45 min)” value in data set [1] turned out to be 99%.
In the same order, the values of `O=C(c1cnc2c(ccn2-c2cncc(N3CCOC3=O)c2)c1)N1CCC(F)(F)CC1` [MF-DH-472] are below 100 nM and 83%.
With `NC(=O)c1cncc(-n2cc(Cl)c3cc(C(=O)N4CCC(F)(F)CC4)cnc32)c1` [MF-DH-482], at 15-PGDH/HPGD, the IC50 was below 100 nM. Moreover, the “MLM + NADPH (% remaining at 45 min)” value in data set [1] worked out at 103%.
In the same order, the values of `CCOC(=O)Nc1cncc(-n2ccc3cc(C(=O)N4CCC(F)(F)CC4)cnc32)c1` [MF-DH-485, ethyl (5-(5-(4,4-difluoropiperidine-1-carbonyl)-1H-pyrrolo[2,3-b]pyridin-1-yl)pyridin-3-yl)carbamate] are below 100 nM and 80%.
In the same order, the values of `O=C(Nc1cc(C2CC2)[nH]n1)c1cccc(-n2ccc3cc(C(=O)N4CCC(F)(F)CC4)cnc32)c1` [MF-DH-498, N-(5-cyclopropyl-1H-pyrazol-3-yl)-3-(5-(4,4-difluoropiperidine-1-carbonyl)-1H-pyrrolo[2,3-b]pyridin-1-yl)benzamide] are below 100 nM and 0%.
In the same order, the values of `O=C(Nc1ccn(C2CC2)n1)c1cccc(-n2ccc3cc(C(=O)N4CCC(F)(F)CC4)cnc32)c1` [MF-DH-499, N-(1-cyclopropyl-1H-pyrazol-3-yl)-3-(5-(4,4-difluoropiperidine-1-carbonyl)-1H-pyrrolo[2,3-b]pyridin-1-yl)benzamide] are below 100 nM and 15%.
